Data as given in patent publication US8143241B2, “DNA damage repair inhibitors for treatment of cancer” (Kudos Pharmaceuticals Limited, priority 2003, dated 2012).
pIC50: −log10 of the molar value.

What was measured:
[1] = test system: Brca1 and Brca2 deficient cells; experiment: Mitotic chromosome analysis; assay type: cell-based, mouse; conditions: 24 hours treatment
Description: ES cells were seeded onto gelatin, treated for 24 hours with chemical inhibitors, followed by colcemid treatment for 1 hour. Cells were harvested, fixed, dropped onto slides, dried and stained with DAPI before chromosome analysis under a microscope.

[2] = test system: Brca1 and Brca2 deficient cells; experiment: Timed-exposure clonogenic assay, Brca1 and Brca2 deficient cells; assay type: cell-based, mouse
Description: (§1) For measurement of sensitivity to chemical inhibitors, cell cultures e.g. ES cells or mouse embryonic fibroblasts, in exponential growth were trypsinised and seeded at various densities in 6-well plates onto confluent monolayer of Mitomycin C (MMC) inactivated mouse embryonic fibroblasts and, where appropriate, treated with inhibitors after 18 h. For continuous exposure, cells were re-fed every 4 days with fresh medium and inhibitor. For timed exposures, inhibitor was added for the specified period then cells were washed and re-fed with fresh medium. After 10-14 days, cells were washed with PBS, fixed in methanol and stained with crystal violet. Colonies containing greater than approximately 50 cells were counted. Experiments were performed at least three times in triplicate.
Cells were exposed to different concentrations of KU0058684 for defined periods of time. The inhibitor was then removed and the effects measured using a clonogenic assay. The inhibitory effects of KU0058684 on clonal growth were apparent after a relatively short exposure time, 4 h, and were essentially complete by 24 h exposure (FIGS. 5 and 6).

[3] = test system: chinese hamster ovary cells deficient in Brca2 (V-C8); experiment: Clonogenic assay, Brca2 deficient chinese hamster ovary cells (V-C8) vs Brca2-complemented derivative; assay type: cell-based; conditions: Brca2 deficient CHO cells vs complemented derivative
Source text: VC8 cells and the mouse Brca2 BAC complemented derivatives were as described in M. Kraakman-van der Zwet et al., Mol Cell Biol 22, 669-79 (2002)). ES cells defective in Brca2 function have been described previously (Tutt et al. (2002) EMBO Rep 3, 255-60). The construction of ES cells defective in Brca1 will be described elsewhere but have previously been validated (Foray et al. (2003) Embo J 22 2860-71). HBL100 cells were transfected with a pSUPER BRCA1 RNAi plasmid and selected with geneticin for 3 weeks. Clones were selected on the basis of their BRCA1 expression, as analysed by Northern blot.
as §1

[4] = test system: RAD51 siRNA transfected HeLa cells; experiment: Clonogenic survival, HeLa cells with RAD51 RNAi silencing; assay type: cell-based, human; conditions: pSUPER-CFP-17/19/23 transfected HeLa cells, constant exposure 12-14 days; read-out: SF50 (the source's name)
Source text: Clonogenic survival curves of transfected HeLa cells under constant exposure to a range of concentrations of PARP inhibitor (KU0058684) for 12-14 days. […] SF50 for pSUPER-CFP-CONTROL transfected cells is >1×10^−5 M and is 1×10^−6 M for pSUPER-CFP-17/19/23 transfected cells.
HeLa cells were transfected using FuGene (Roche, USA) according to the manufacturers instructions. For clonogenic survival assays, cells were co-transfected in 6 well plates with pSUPER and a vector expressing blasticidin resistance (pEF-Bsd, Invitrogen, USA) at a ratio of 10:1 (pSUPER: pEF-Bsd). Twenty-four hours after transfection, cells were plated into replica plates and this was followed by treatment with PARP inhibitors and blasticidin 48 hours post transfection.

[5] = test system: tankyrase; conditions: at concentrations up to 1 μM
[6] = target: PARP-3 (Homo sapiens, UniProt Q9Y6F1); experiment: Selectivity: PARP-3 inhibition; assay type: biochemical; conditions: at concentrations up to 1 μM
[7] = target: PARP-1 (Homo sapiens, UniProt P09874); experiment: PARP-1 enzyme activity inhibition; assay type: biochemical; conditions: read-out: IC50 against PARP-1 enzyme activity
Description: Chemical inhibitors were dissolved in DMSO at 10 mM and stored at −20° C. in the dark.

[8] = test system: Brca1 and Brca2 wild type and mutant ES cells; experiment: FACS analysis of cell cycle arrest (DNA content, phospho-histone H3); assay type: cell-based, mouse
Description: For DNA content measurement, cells were fixed in 70% ethanol, incubated with Rnase A and propidium iodide (PI) and analysed with a FACSCalibur (Becton Dickinson). For phospho-Histone H3 analysis, cells were fixed in 70% ethanol, permeabilised with 0.25% triton X-100, incubated with anti-phospho-histone H3 antibody (Upstate Biotechnology) for 3 hours, and then with FITC-anti rabbit IgG (Serotec) for 30 minutes.
Cells were exposed with KU0058684 for various periods then labelled with BrdU and the proportion of cells in each phase of the cell cycle. […] To further characterise this arrest, cells were analysed for both DNA content and for phosphorylated Histone H3, an M phase marker. […]

[9] = test system: MCF7-3.23 cells; experiment: Clonal survival, BRCA1 silenced MCF7-3.23 cells; assay type: cell-based, human
Source text: (§2) Log concentration of inhibitor is plotted against log surviving fraction of cells.
(§3) The MCF7 scrambled and MCF7-3.23 cell lines were generated by stable transfection of MCF7 mammary adenocarcinoma cells with gene specific pSUPER constructs. Gene specific pSUPER constructs were generated expressing the following RNAi target sequences: (i) human BRCA1 (SEQ ID NO:3) 5r-[…]-3′ (ii) scrambled control 5′-(SEQ ID NO:4) […]-3′. A 1.8 kb fragment containing the human EF1a promoter and the blasticidin resistance gene (bsd) was subcloned from pEFBsd (Invitrogen) into the SapI site of the resultant pSUPER constructs, generated pSUPER-Bsd-BRCA1 and pSUPER-Bsd-scrambled. MCF7 cells were transfected with these plasmids using FuGene6 (Roche) according to the manufacturers instructions. After selection in blasticidin, resistant clones were assessed by real time PCR for silencing of BRCA1 mRNA (Egawa et al Oncology. 2001; 61(4): 293-8; Egawa et al Int J. Cancer. 2001 Jul. 20; 95(4):255-9). Clones with reduced levels of BRCA1 mRNA were cultured (under blasticidin selection) over 8 passages and the real-time assay repeated.

[10] = test system: Brca2 deficient ES cells; experiment: Clonogenic assay, continuous exposure, Brca2 deficient ES cells; assay type: cell-based, mouse
Description: as §1

[11] = test system: MCF7-scrambled cells; experiment: Clonal survival, BRCA1 wild-type MCF7-scrambled cells; assay type: cell-based, human; conditions: continuous exposure 12-14 days
Source text: as §2, §3

[12] = test system: Brca1 deficient ES cells; experiment: Clonogenic assay, continuous exposure, Brca1 deficient ES cells; assay type: cell-based, mouse
Description: as §1

[13] = timed exposure, inhibitor then removed

PARP-3, sequence (Q9Y6F1 whole entry, species assumed): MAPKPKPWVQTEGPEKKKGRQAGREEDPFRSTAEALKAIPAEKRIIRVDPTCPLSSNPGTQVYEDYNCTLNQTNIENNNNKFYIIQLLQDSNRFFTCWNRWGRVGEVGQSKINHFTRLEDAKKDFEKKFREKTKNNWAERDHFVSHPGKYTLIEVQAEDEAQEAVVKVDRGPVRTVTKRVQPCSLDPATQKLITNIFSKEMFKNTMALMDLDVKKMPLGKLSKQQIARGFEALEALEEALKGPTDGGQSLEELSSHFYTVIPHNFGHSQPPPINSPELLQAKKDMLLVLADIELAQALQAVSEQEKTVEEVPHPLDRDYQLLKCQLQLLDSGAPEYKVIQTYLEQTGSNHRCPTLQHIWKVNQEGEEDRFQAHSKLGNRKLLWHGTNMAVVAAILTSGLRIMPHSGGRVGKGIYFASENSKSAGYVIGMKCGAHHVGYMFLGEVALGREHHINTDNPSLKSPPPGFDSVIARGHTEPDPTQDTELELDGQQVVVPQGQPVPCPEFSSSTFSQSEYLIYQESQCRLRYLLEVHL
PARP-1, sequence (P09874 whole entry): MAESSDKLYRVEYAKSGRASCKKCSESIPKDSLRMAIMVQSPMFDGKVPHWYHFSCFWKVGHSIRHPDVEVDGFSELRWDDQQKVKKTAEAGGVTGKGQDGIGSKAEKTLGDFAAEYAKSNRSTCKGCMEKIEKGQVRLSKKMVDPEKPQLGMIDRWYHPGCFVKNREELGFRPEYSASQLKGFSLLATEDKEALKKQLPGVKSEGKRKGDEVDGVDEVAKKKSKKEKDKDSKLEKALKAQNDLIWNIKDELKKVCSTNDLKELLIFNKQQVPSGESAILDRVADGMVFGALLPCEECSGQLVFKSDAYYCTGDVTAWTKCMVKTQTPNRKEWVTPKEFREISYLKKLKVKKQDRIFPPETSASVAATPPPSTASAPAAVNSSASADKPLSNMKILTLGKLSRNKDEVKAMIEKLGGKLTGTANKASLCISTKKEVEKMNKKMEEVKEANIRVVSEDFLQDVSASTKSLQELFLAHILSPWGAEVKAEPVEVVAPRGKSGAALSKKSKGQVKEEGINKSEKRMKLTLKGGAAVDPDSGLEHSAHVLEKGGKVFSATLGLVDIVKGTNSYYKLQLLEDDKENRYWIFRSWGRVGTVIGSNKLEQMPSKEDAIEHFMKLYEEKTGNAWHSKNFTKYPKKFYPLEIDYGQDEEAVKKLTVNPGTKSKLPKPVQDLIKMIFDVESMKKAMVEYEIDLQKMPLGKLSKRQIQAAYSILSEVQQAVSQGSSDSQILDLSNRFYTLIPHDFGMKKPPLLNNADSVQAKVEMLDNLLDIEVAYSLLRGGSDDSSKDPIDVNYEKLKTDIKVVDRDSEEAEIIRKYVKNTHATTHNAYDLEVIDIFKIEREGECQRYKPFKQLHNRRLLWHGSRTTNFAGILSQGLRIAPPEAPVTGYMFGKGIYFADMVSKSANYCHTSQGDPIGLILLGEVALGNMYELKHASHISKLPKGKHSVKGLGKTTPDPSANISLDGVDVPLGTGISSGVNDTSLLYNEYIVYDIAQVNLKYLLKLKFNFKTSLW

O=C1CCC(=O)N1c1cc(Cc2n[nH]c(=O)c3ccccc23)ccc1F [KU0058684]
mitotic chromosome aberrations [1]: frequent major aberrations | reversibility of the effects of PARP inhibition ([2]; short exposure followed by 10-14 days in the absence of inhibitor): irreversible | exposure time after which inhibitory effects on clonal growth were apparent [2, 13]: 4 h | exposure time by which inhibitory effects on clonal growth were essentially complete [2, 13]: ≤ 24 h | enhanced sensitivity compared to a Brca2-complemented derivative [3]: greater than 1000 fold | pIC50 [4]: 6.00 | inhibition of tankyrase [5]: do not inhibit | inhibition of PARP-3 [6]: do not inhibit | pIC50 [7]: 8.49 | cell cycle arrest (DNA content, FACS) [8]: profound arrest of cells with a tetraploid DNA content | phase of arrest (phospho-histone H3 labelling) [8]: majority of cells were arrested in G2 | sensitivity of MCF7-3.23 cells compared with MCF7-scrambled cells [9]: significantly more sensitive | sensitivity (clonal survival) ([9]; MCF7-3.23, continuous exposure 12-14 days): both cell lines were sensitive | pIC50 ([10]; Brca2 deficient ES cells, continuous exposure, read-out: SF50 (dosage at which 50% of cells survived)): 7.82 | enhanced sensitivity compared to wild-type ([10]; Brca2 mutant cells vs wild-type): 133 fold | sensitivity of Brca2 deficient cells compared to otherwise isogenic cells ([10]; clonogenic assay): extremely sensitive | sensitivity (clonal survival) [11]: both cell lines were sensitive | pIC50 ([12]; Brca1 deficient ES cells, continuous exposure, read-out: SF50 (dosage at which 50% of cells survived)): 7.46 | enhanced sensitivity compared to wild-type ([12]; Brca1 mutant cells vs wild-type): 57 fold | sensitivity of Brca1 deficient cells compared to otherwise isogenic cells ([12]; clonogenic assay): extremely sensitive
